Reference: US4039540A, “3-Substituted quinoxaline-2-carboxamide-1,4-dioxides” (Pfizer Inc., priority 1975, dated 1977)
Converted amounts (≈) assume the structure as drawn. Where two headings read alike, the source gives them in different places.

Tests used:
Strep. pyrogens = test: in vitro antibacterial activity, two-fold serial dilution in Brain-Heart Infusion Broth (MIC); format: cell-based; conditions: overnight, anaerobic
Description: (§1) The broth is inoculated with bacteria and with the test quinoxaline-1,4-dioxide and then it is incubated overnight under anerobic conditions. On the next day, the test is read visually. The minimum inhibitory concentration (MIC) of test compound is the lowest concentration which prevents turbidity, i.e., which prevents growth of the microorganism.
(§2) In vitro and in vivo activity of representative compounds of this invention, determined as aforesaid, are reported in the following tabulation for compounds of the formula: [drawing 12]

E. coli [1] = test: as above; format: cell-based; conditions: Escherichia coli, overnight, anaerobic
Description: as §1, §2

Strep. pyogenes = test: in vivo activity in mice infected with a lethal inoculum of Strep. pyogenes; conditions: Streptococcus pyogenes, multiple dosing
Description: (§3) In determining the in vivo activity of the quinoxaline-1,4-dioxides of this invention, the test compound is administered to mice which have been infected by […] injection of a lethal inoculum of pathogenic bacteria. The test compound is administered using a multiple dosing regimen and using either the oral (PO) or the subcutaneous (SC) route. The inoculum of bacteria varies from about 1 to about 10 times the amount needed to kill 100% of the mice under the conditions of the test. At the end of the test, the activity of the compound is assessed by counting the number of survivors among the treated animals.
as §2

E. coli [2] = test: in vivo activity in mice infected with a lethal inoculum of E. coli; conditions: Escherichia coli, sc, subcutaneous, multiple dosing, read-out: IN VIVO E. coli, number of survivors among the treated animals
Description: as §3, §2

[3] = oral, read-out: IN VIVO Strep. pyogenes, number of survivors among the treated animals, PO (data in parenthesis)
[4] = sc, subcutaneous, read-out: IN VIVO Strep. pyogenes, number of survivors among the treated animals

SMILES	MIC (Strep. pyrogens)	MIC (E. coli [1])	responders at 50 mg/kg (Strep. pyogenes; [3])	responders at 50 mg/kg (Strep. pyogenes; [4])	responders at 25 mg/kg (E. coli [2])
COCCNC(=O)c1c(CS(=O)(=O)CCCOC(C)=O)[n+]([O-])c2ccccc2[n+]1[O-] [NHCH2 CH2 OCH3; SO2 CH2 CH2 CH2 OAc; H]	12.5 µg/mL (≈ 28.3 µM)	100 µg/mL (≈ 227 µM)	10%	20%	10%
COCCNC(=O)c1c(CS(=O)(=O)CCO)[n+]([O-])c2ccccc2[n+]1[O-] [NHCH2 CH2 OCH3; SO2 CH2 CH2 OH; H]	0.781 µg/mL (≈ 2.03 µM)	12.5 µg/mL (≈ 32.4 µM)	0%	40%	0%
COCCNC(=O)c1c(CS(=O)(=O)CCCN2CCCCC2)[n+]([O-])c2ccccc2[n+]1[O-] [NHCH2 CH2 OCH3; drawing 25; H]	1.56 µg/mL (≈ 3.35 µM)	50 µg/mL (≈ 107 µM)	100%	100%	20%
CC(=O)OCCCSCc1c(C(=O)NCCO)[n+]([O-])c2ccccc2[n+]1[O-] [NHCH2 CH2 OH; S(CH2)3 OAc; H]	6.25 µg/mL (≈ 15.8 µM)	100 µg/mL (≈ 253 µM)	30%	10%	30%
O=C(NCCO)c1c(CSCCO)[n+]([O-])c2ccccc2[n+]1[O-] [NHCH2 CH2 OH; SCH2 CH2 OH; H]	12.5 µg/mL (≈ 36.8 µM)	50 µg/mL (≈ 147 µM)	50%	30%	0%
CN(C)CCCS(=O)(=O)Cc1c(C(=O)NCCO)[n+]([O-])c2ccccc2[n+]1[O-] [NHCH2 CH2 OH; SO2 (CH2)3 N(CH3)2; H]	50 µg/mL (≈ 121 µM)	50 µg/mL (≈ 121 µM)	0%	60%	0%
O=C(NCCO)c1c(CS(=O)(=O)CCO)[n+]([O-])c2ccccc2[n+]1[O-] [NHCH2 CH2 OH; SO2 CH2 CH2 OH; H]	25 µg/mL (≈ 67.3 µM)	100 µg/mL (≈ 269 µM)	10%	30%	10%
O=C(NCCO)c1c(CS(=O)(=O)CCCN2CCCCC2)[n+]([O-])c2ccccc2[n+]1[O-] [NHCH2 CH2 OH; drawing 22; H]	50 µg/mL (≈ 110 µM)	25 µg/mL (≈ 55.2 µM)	20%	100%	20%
CCSCCNC(=O)c1c(CS(=O)(=O)CCO)[n+]([O-])c2ccccc2[n+]1[O-] [NHCH2 CH2 SCH2 CH3; SO2 CH2 CH2 OH; H]	1.56 µg/mL (≈ 3.76 µM)	100 µg/mL (≈ 241 µM)	0%	10%	50%
CCNC(=O)c1c(CSCCCOC(C)=O)[n+]([O-])c2ccccc2[n+]1[O-] [NHCH2 CH3; SCH2 CH2 CH2 OAc; H]	3.12 µg/mL (≈ 8.24 µM)	25 µg/mL (≈ 65.9 µM)	20%	10%	0%
CCNC(=O)c1c(CSCCO)[n+]([O-])c2ccccc2[n+]1[O-] [NHCH2 CH3; SCH2 CH2 OH; H]	3.12 µg/mL (≈ 9.66 µM)	6.25 µg/mL (≈ 19.3 µM)	20%	20%	40%
CCNC(=O)c1c(CS(=O)(=O)CCCN(C)C)[n+]([O-])c2ccccc2[n+]1[O-] [NHCH2 CH3; SO2 (CH2)3 N(CH3)2; H]	1.56 µg/mL (≈ 3.94 µM)	12.5 µg/mL (≈ 31.5 µM)	100%	100%	100%
CCNC(=O)c1c(CS(=O)(=O)CCCO)[n+]([O-])c2ccccc2[n+]1[O-] [NHCH2 CH3; SO2 CH2 CH2 CH2 OH; H]	< 0.39 µg/mL	6.25 µg/mL (≈ 16.9 µM)	20%	80%	10%
CCNC(=O)c1c(CS(=O)(=O)CCCN2CCOCC2)[n+]([O-])c2ccccc2[n+]1[O-] [NHCH2 CH3; drawing 17; H]	12.5 µg/mL (≈ 28.5 µM)	25 µg/mL (≈ 57 µM)	80%	100%	60%
CCNC(=O)c1c(CS(=O)(=O)CCCN2CCCCC2)[n+]([O-])c2ccccc2[n+]1[O-] [NHCH2 CH3; drawing 26; H]	3.12 µg/mL (≈ 7.16 µM)	12.5 µg/mL (≈ 28.6 µM)	90%	100%	60%
O=C(NCC(O)CO)c1c(CS(=O)(=O)CCO)[n+]([O-])c2ccccc2[n+]1[O-] (centres unmarked) [NHCH2 CHOHCH2 OH; SO2 CH2 CH2 OH; H]	6.25 µg/mL (≈ 15.6 µM)	200 µg/mL (≈ 498 µM)	70%	40%	0%
CC(O)CNC(=O)c1c(CS(=O)(=O)CCO)[n+]([O-])c2ccccc2[n+]1[O-] (centres unmarked) [NHCH2 CHOHCH3; SO2 CH2 CH2 OH; H]	12.5 µg/mL (≈ 32.4 µM)	100 µg/mL (≈ 259 µM)	10%	0%	20%
CCOC(=O)CSCc1c(C(=O)NC)[n+]([O-])c2ccccc2[n+]1[O-] [NHCH3; SCH2 CO2 Et; H]	12.5 µg/mL (≈ 35.6 µM)	12.5 µg/mL (≈ 35.6 µM)	0%	0%	30%
CCN(CC)CCCS(=O)(=O)Cc1c(C(=O)NC)[n+]([O-])c2ccccc2[n+]1[O-] [NHCH3; SO2 (CH2)3 N(CH2 CH3)2; H]	12.5 µg/mL (≈ 30.5 µM)	25 µg/mL (≈ 60.9 µM)	0%	80%	40%
CNC(=O)c1c(CS(=O)(=O)CCCN(C)C)[n+]([O-])c2ccccc2[n+]1[O-] [NHCH3; SO2 (CH2)3 N(CH3)2; H]	3.12 µg/mL (≈ 8.17 µM)	6.25 µg/mL (≈ 16.3 µM)		100%	100%
CNC(=O)c1c(CS(=O)(=O)CCOC(C)=O)[n+]([O-])c2ccccc2[n+]1[O-] [NHCH3; SO2 CH2 CH2 OAc; H]	< 0.391 µg/mL	3.12 µg/mL (≈ 8.15 µM)	70%	90%	80%
CNC(=O)c1c(CS(=O)(=O)CCO)[n+]([O-])c2ccccc2[n+]1[O-] [NHCH3; SO2 CH2 CH2 OH; H]	1.56 µg/mL (≈ 4.58 µM)	0.781 µg/mL (≈ 2.29 µM)	40%	80%	100%
CNC(=O)c1c(CS(=O)(=O)CCCN2CCOCC2)[n+]([O-])c2ccccc2[n+]1[O-] [NHCH3; drawing 18; H]	25 µg/mL (≈ 58.9 µM)	25 µg/mL (≈ 58.9 µM)	70%	100%	0%
CNC(=O)c1c(CS(=O)(=O)CCCN2CCCCC2)[n+]([O-])c2ccccc2[n+]1[O-] [NHCH3; drawing 23; H]	6.25 µg/mL (≈ 14.8 µM)	6.25 µg/mL (≈ 14.8 µM)	70%	100%	100%
CCC(CO)NC(=O)c1c(CS(=O)(=O)CCO)[n+]([O-])c2ccccc2[n+]1[O-] (centres unmarked) [NHCHEtCH2 OH; SO2 CH2 CH2 OH; H]	3.12 µg/mL (≈ 7.82 µM)	200 µg/mL (≈ 501 µM)	80%	0%	10%
CCNC(=O)c1c(CS(=O)(=O)CCO)[n+]([O-])c2ccccc2[n+]1[O-] [NHEt; SO2 CH2 CH2 OH; H]	1.56 µg/mL (≈ 4.4 µM)	6.25 µg/mL (≈ 17.6 µM)	80%	60%	90%
CNC(=O)c1c(CSCCCO)[n+]([O-])c2ccccc2[n+]1[O-] [NHMe; SCH2 CH2 CH2 OH; H]	1.56 µg/mL (≈ 4.83 µM)	12.5 µg/mL (≈ 38.7 µM)	10%	0%	20%
